Our source for the EC50 and IC50 values is patent US10364256B2 (GlaxoSmithKline Intellectual Property Development Limited, priority 2015, dated 2019).

pEC50, pIC50: −log10 of the molar value.

Assay [1] relates to NQO1 specific enzyme activity in BEAS-2B cells (marker for NRF2 activation). As to the kind of experiment: BEAS-2B NQO1 MTT Assay. The note with it: Homo sapiens, compound incubated 48 hours, read-out: EC50 (NQO1 specific enzyme activity induction). Type of assay: cell-based. From the text:
BEAS-2B NQO1 MTT Assay NAD(P)H:quinone oxidoreductase 1 (NQO1), also called DT diaphorase, is a homodimeric FAD-containing enzyme that catalyzes obligatory NAD(P)H-dependent two-electron reductions of quinones and protects cells against the toxic and neoplastic effects of free radicals and reactive oxygen species arising from one-electron reductions. The transcription of NQO1 is finely regulated by NRF2, and thus NQO1 activity is a good marker for NRF2 activation. On day one, frozen BEAS-2B cells (ATCC) are thawed in a water bath, counted, and re-suspended at a concentration of 250,000 cells/mL. Fifty microliters of cells are plated in 384 well black clear-bottomed plates. Plates are incubated at 37° C., 5% CO2 overnight. On day two, plates are centrifuged and 50 nL of compound or controls are added to the cells. Plates are then incubated at 37° C., 5% CO2 for 48 hours. On day four, medium is aspirated from the plate and crude cell lysates are made by adding 13 uL of 1× Cell Signaling Technologies lysis buffer with 1 Complete, Mini, EDTA-free Protease Inhibitor Tablet (Roche) for each 10 mL of lysis buffer. After lysis plates are incubated for 20 minutes at room temperature. Two microliters of lysate are removed for use in Cell Titer Glo assay (Promega) and MTT cocktail is prepared (Prochaska et. al. 1998) for measurement of NQO1 activity. Fifty microliters of MTT cocktail is added to each well, plate is centrifuged, and analyzed on an Envision plate reader (Perkin Elmer) using Absorbance 570 nm label for 30 minutes. Product formation is measured kinetically and the pEC50 of NQO1 specific activity induction is calculated by plotting the change in absorbance (Delta OD/min) versus the log of compound concentration followed by 3-parameter fitting. pEC50 is the negative log of the EC50.

Assay [2] addresses T1, Keap1 Kelch domain (321-609) / TAMRA-labeled 16mer NRF2 peptide (ETGE motif) (Homo sapiens, UniProt Q14145).
T1 construct: the Kelch domain (321-609) of Keap1 is used
In words: NRF2-Keap1 FP Assay (Keap1 Kelch fluorescence polarization). The settings on record: 20 nM Keap1 (321-609), 8 nM Tamra labeled peptide. Format: binding. The source says: One model for the NRF2-Keap1 interaction is through two binding sites in the Neh2 domain on NRF2. The two sites are referred to as the DLG binding motif (latch domain, uM affinity) and the ETGE binding motif (hinge domain, nM affinity). The Keap1 protein consists of an N-terminal region (NTR), a broad complex, tramtrack, and brick a′ brac domain (BTB), an intervening region (IVR), a double glycine repeat domain (DGR or Kelch), and a C-terminal region. The DLG and ETGE motifs of NRF2's Neh2 domain bind to the Kelch domain of Keap1 at different affinities. In the Keap1 Kelch fluorescence polarization (FP) assay, a TAMRA-labeled 16mer peptide (AFFAQLQLDEETGEFL) containing the ETGE motif of NRF2 and the Kelch domain (321-609) of Keap1 is used. The assay determines if a compound interferes with the binding between Keap1 […] and the TAMRA-labeled peptide. Binding of TAMRA-labeled NRF2 peptide to Keap1 (321-609) results in a high FP signal. If a compound interferes with the binding between the peptide and the protein, it will cause the assay signal to decrease. Thus, assay signal is inversely proportional to binding inhibition.
100 nl of 100× compound dose response curves (serial 3-fold dilutions) in DMSO are stamped using an Echo liquid handling system (Labcyte) into 384-well low volume black assay plates (Greiner, #784076), with DMSO in columns 6 and 18. The top concentration of compound is located in columns 1 and 13. Keap1 (321-609) is diluted to 40 nM (2×) in 1× assay buffer (50 mM Tris, pH 8.0, 100 mM NaCl, 5 mM MgCl2, 1 mM DTT, 2 mM CHAPS, and 0.005% BSA) and 5 ul is added using a Multidrop Combi (Thermo Electron Corporation) equipped with a metal tip dispenser to all wells of the compound plate, except column 18. Column 18 receives only 5 ul of assay buffer. Immediately, 5 uL of 16 nM (2×) of Tamra labeled peptide (AFFAQLQLDEETGEFL, 21st Century Biochemicals) is added to all wells of the plate. The plates are spun at 500 rpm for 1 min, incubated for 1 hr at room temperature, and read on an Analyst GT (Molecular Devices) equipped with excitation (530/25 nm) and emission (580/10 nm) filters designed for Tamra probes. A 561 nm dichroic mirror is also used in the Analyst. The final assay concentrations of Keap1 (321-609) and Tamra labeled peptide are 20 nM and 8 nM, respectively. Fluorescence measurements, represented as mP, are used in the transformation of the data. Compound activity is calculated based on percent inhibition, normalized against controls in the assay (Control 1 contains the Tamra peptide and Keap1 (321-609) together (0% response) and control 2 contains the Tamra peptide alone (100% response)). Data analysis is handled using the software package Abase XE (Surrey, United Kingdom. The % inhibition values are calculated by the equation: 100−(100*((compound response−average control 2)/(average control 1−average control2))). For calculation of pIC50s, Abase XE uses a four parameter equation. pIC50 is the negative log of the IC50.

The target of assay [3] is T2, full length Keap1 protein / full length NRF2 protein (Homo sapiens, UniProt Q14145).
T2 construct: full length NRF2 protein and full length Keap1 protein (Keap1 exists a dimer) are used; His
T2 sequence (Q14145 whole entry): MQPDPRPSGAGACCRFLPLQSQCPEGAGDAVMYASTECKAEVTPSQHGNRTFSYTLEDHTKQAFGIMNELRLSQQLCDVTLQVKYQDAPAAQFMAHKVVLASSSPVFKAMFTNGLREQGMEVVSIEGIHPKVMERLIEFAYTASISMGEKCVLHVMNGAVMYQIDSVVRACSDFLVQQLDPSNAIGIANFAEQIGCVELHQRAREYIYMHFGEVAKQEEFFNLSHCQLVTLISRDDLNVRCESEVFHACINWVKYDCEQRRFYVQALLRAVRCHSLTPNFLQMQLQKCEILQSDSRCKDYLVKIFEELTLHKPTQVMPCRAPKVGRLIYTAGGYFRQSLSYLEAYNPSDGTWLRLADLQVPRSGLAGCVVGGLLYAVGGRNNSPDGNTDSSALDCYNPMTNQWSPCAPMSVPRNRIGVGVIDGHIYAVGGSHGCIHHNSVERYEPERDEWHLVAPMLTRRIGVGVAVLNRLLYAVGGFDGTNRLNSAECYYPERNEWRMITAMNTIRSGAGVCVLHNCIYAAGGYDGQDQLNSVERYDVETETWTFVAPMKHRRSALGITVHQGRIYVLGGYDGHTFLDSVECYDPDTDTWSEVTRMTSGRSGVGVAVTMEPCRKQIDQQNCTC
In words: NRF2-Keap1 TR-FRET Low Protein Assay. Type of assay: binding. The settings on record: 1.25 nM Keap1 FlagHis and 2.5 nM biotin-NRF2 added. From the text: NRF2-Keap1 TR-FRET Low Protein Assay In the NRF2-Keap1 TR-FRET (time-resolved fluorescence resonance energy transfer) low protein assay, full length NRF2 protein and full length Keap1 protein (Keap1 exists a dimer) are used. The assay detects a compound's ability to displace the binding of Keap1 […] with biotinylated Avi-NRF2 protein. Biotin-NRF2 binds to streptavidin-europium (a component of the detection mix) and Keap1 […] is recognized by anti-Flag APC (allophycocyanin) antibody (also a component of the detection mix). If binding occurs between the two proteins, there will be an energy transfer from the Eu+3 (donor) at 615 nm to the APC (acceptor) at 665 nm. A potential NRF2 inhibitor will cause a reduction in the TR-FRET signal by interfering with the binding of Keap1 to NRF2. Ten nanoliters of 100× compound dose response curves (serial 3-fold dilutions) in DMSO are stamped using an Echo liquid handling system (Labcyte) into 384-well, low volume, black assay plates (Greiner, #784076), with DMSO in columns 6 and 18. An additional 90 nl DMSO is added to each well, to bring the total volume to 100 nl per well. The top concentration of compound is located in columns 1 and 13, with the serial dilutions going across the row. All reagents are diluted in assay buffer (50 mM Tris, pH 8.0, 5 mM MgCl2, 100 mM NaCl, 0.005% BSA, 1 mM DTT, and 2 mM CHAPS. The BSA, DTT, and CHAPS are added to the assay buffer on the day of assay. […] Wells in column 18 receive 5 ul of assay buffer instead. Plates are centrifuged at 500 rpm for 1 minute, covered with a plate lid, and incubated at 37° C. for 2.25 hours. Plates are then removed from the incubator and allowed to cool to RT for 15 minutes. Five microliters of 2.5 nM biotin-NRF2 protein is then added to all wells of the plates and the plates are spun at 500 rpm for 1 minute, followed by incubating at 4° C. for 1.25 hours. The plates are then allowed to warm to RT for 15 minutes, followed by the addition of 10 ul of detection mix (1 nM Streptavidin Eu+W1024 and 5 ug/ml mouse anti-DYKDDDDK IgG conjugated to SureLight APC antibody; both from Columbia Biosciences) to all wells. Plates are spun at 500 rpm for 1 minute, incubated for 1 hour at RT, and read on an Envision plate reader using a 320 nm excitation filter and 615 nm and 665 nm emission filters. […] Data analysis is handled using the software package Abase XE (Surrey, United Kingdom). […] For calculation of pIC50s, Abase XE uses a four parameter equation. pIC50 is the negative log of the IC50.

T1 sequence (Q14145 321-609): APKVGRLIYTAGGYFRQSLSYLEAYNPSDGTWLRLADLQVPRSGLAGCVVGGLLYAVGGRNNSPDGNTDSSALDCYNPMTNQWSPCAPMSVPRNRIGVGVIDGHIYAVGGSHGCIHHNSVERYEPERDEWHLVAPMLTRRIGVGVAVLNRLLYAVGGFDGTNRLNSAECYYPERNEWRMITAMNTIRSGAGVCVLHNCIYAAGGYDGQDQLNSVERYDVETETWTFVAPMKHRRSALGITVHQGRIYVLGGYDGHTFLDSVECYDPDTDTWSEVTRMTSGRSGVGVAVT

In the case of `Cn1cc([C@@H]2C[C@H]2c2c(C(=O)O)cnn2-c2cccc(-c3cccc(CN4CCOc5ccccc5C4)c3)c2)nn1` (racemic) [Example 256, 1-(3′-((2,3-Dihydrobenzo[f][1,4]oxazepin-4(5H)-yl)methyl)-[1,1′-biphenyl]-3-yl)-5-(trans-2-(1-methyl-1H-1,2,3-triazol-4-yl)cyclopropyl)-1H-pyrazole-4-carboxylic Acid], the pEC50 in assay [1] is 5.00 to 6.00. Moreover, the pIC50 in assay [2] and in assay [3] was 7.00 to 8.00 throughout.
Take `C[C@@H]1Cc2ccc(Br)cc2S(=O)(=O)N(Cc2cccc(-c3cccc(-n4ncc(C(=O)O)c4[C@@H]4C[C@H]4c4cn(C)nn4)c3)c2)C1` (single isomer, unassigned; isomer 2) [Example 135]: the pEC50 in assay [1] is 7.00 to 8.00. The pIC50 in assay [2] and in assay [3] was 7.00 to 8.00 in each case.
Take `C[C@H]1Cc2ccc(Br)cc2S(=O)(=O)N(Cc2cccc(-c3cccc(-n4ncc(C(=O)O)c4[C@@H]4C[C@H]4c4cn(C)nn4)c3)c2F)C1` [Example 131, 1-(3′-(((S)-8-Bromo-4-methyl-1,1-dioxido-4,5-dihydrobenzo[f][1,2]thiazepin-2(3H)-yl)methyl)-2′-fluoro-[1,1′-biphenyl]-3-yl)-5-((1R,2R)-2-(1-methyl-1H-1,2,3-triazol-4-yl)cyclopropyl)-1H-pyrazole-4-carboxylic acid]: in assay [1], the pEC50 is 6.00 to 7.00. The results for the pIC50 in assay [2] and in assay [3] were 7.00 to 8.00 and greater than 8.00, respectively.
The matching figures for `Cn1cc([C@@H]2C[C@H]2c2c(C(=O)O)cnn2-c2cccc(-c3cccc(S(=O)(=O)N4CCCCC4)c3)c2)nn1` (racemic) [Example 143, 5-((1,2-trans)-2-(1-Methyl-1H-1,2,3-triazol-4-yl)cyclopropyl)-1-(3′-(piperidin-1-ylsulfonyl)-[1,1′-biphenyl]-3-yl)-1H-pyrazole-4-carboxylic Acid]: 6.00 to 7.00, 7.00 to 8.00 and 7.00 to 8.00.
The matching figures for `C[C@H](Oc1cccc(-c2cccc(-n3ncc(C(=O)O)c3[C@@H]3C[C@H]3c3cn(C4CCCCC4)nn3)c2)c1)C1CCCCC1` (racemic) [Example 84, 5-(trans-2-(1-Cyclohexyl-1H-1,2,3-triazol-4-yl)cyclopropyl)-1-(3′-((S)-1-cyclohexylethoxy)-[1,1′-biphenyl]-3-yl)-1H-pyrazole-4-carboxylic acid]: 7.00 to 8.00, 6.00 to 7.00 and 7.00 to 8.00.
The matching figures for `C[C@H](Oc1cccc(-c2cccc(-n3ncc(C(=O)OCOC(=O)C(C)(C)C)c3[C@@H]3C[C@H]3c3cn(C)nn3)c2)c1)C1CCCCC1` [Example 109, (Pivaloyloxy)methyl 1-(3′-((S)-1-cyclohexylethoxy)-[1,1′-biphenyl]-3-yl)-5-((1R,2R)-2-(1-methyl-1H-1,2,3-triazol-4-yl)cyclopropyl)-1H-pyrazole-4-carboxylate]: 8.00 to 9.00, less than 5.00 and 6.00 to 7.00.
With `CCOC(=O)c1cnn(-c2cccc(-c3cccc(O[C@@H](C)C4CCCCC4)c3)c2)c1[C@@H]1C[C@H]1c1cn(C)nn1` [Example 105, Ethyl 1-(3′-((S)-1-cyclohexylethoxy)-[1,1′-biphenyl]-3-yl)-5-((1R,2R)-2-(1-methyl-1H-1,2,3-triazol-4-yl)cyclopropyl)-1H-pyrazole-4-carboxylate], the pEC50 in assay [1] was greater than 9.00. Also, the results for the negative logarithm of the IC50 (pIC50) in assay [2] and in assay [3] were less than 5.00 and 5.00 to 6.00, respectively.
The matching figures for `CC[C@@H]1CN(Cc2cccc(-c3cccc(-n4ncc(C(=O)O)c4[C@@H]4C[C@H]4c4cn(C)nn4)c3)c2)S(=O)(=O)c2cccnc2O1` (racemic) [Example 138, 1-(3′-(((R)-4-ethyl-1,1-dioxido-3,4-dihydro-2H-pyrido[2,3-b][1,4,5]oxathiazepin-2-yl)methyl)-[1,1′-biphenyl]-3-yl)-5-((1,2-trans)-2-(1-methyl-1H-1,2,3-triazol-4-yl)cyclopropyl)-1H-pyrazole-4-carboxylic acid]: 5.00 to 6.00, 7.00 to 8.00 and greater than 8.00.
